For the test, the target named is hROMK (human Kir1.1) (Homo sapiens (Human), UniProt P48048). As to the kind of experiment: Thallium Flux Assay. It is filed as cell-based. To be noted: CHO T-Rex hROMK stable cell line, 10-point concentration response; read-out: hROMK Th+ Flux IC50. As to the method: Solutions and reagents: Thallium flux assay was performed using FluxOR kit (F10017, Life Technologies). Loading buffer, assay buffer and stimulus buffer were prepared using kit components. HBSS (Hank's balanced salt solution, Cat #14025-092) was purchased separately from Life Technologies.
Sequence of hROMK (human Kir1.1) (P48048 whole entry): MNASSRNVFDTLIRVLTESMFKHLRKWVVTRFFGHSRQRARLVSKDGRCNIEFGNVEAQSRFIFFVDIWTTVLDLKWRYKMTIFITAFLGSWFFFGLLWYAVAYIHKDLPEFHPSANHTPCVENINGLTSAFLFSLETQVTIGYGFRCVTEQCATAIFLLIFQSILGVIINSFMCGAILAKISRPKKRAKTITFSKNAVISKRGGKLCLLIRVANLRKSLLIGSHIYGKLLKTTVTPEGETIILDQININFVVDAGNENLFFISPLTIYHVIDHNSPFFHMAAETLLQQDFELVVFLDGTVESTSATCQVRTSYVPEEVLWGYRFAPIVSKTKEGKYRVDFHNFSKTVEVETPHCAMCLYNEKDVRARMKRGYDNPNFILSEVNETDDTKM
To prepare 10 ml of loading buffer: 10 μl of FluxOR dye (reconstituted in DMSO) was first added to 100 μl of powerload concentrate and this mix along with 100 μl of Probenicid (100×) was then added to 9.79 ml of HBSS. Assay buffer (10 ml) was prepared by addition of 2 ml of FluxOR chloride free buffer (5×), 100 μl of Probenicid (100×), and 0.2 ml of Ouabain (13.77 mM) to 7.7 ml of deionized water. Stimulus buffer was composed of 15 mM Tl2SO4, 0.75 mM K2SO4 in FluxOR chloride free buffer (diluted to 1× using deionized water). The final concentration of Tl2SO4 and K2SO4 in the assay plate was 3 mM and 0.15 mM, respectively.
Plating and induction of cells: The CHO T-Rex hROMK (human Kir1.1) stable cell line was maintained in Ham's F12 media supplemented with 10% FBS, 1% Penicillin-Streptomycin, 500 μg/ml Zeocin and 10 μg/ml Blasticidin at 37° C. in a 5% CO2 incubator. One day before the experiment, the cells were dissociated by incubation with Versene solution (15040-066, Life Technologies) for 10 minutes at 37° C. followed by addition of growth media. The cell suspension was centrifuged at 1200 rpm for 5 min. After discarding the supernatant, the cells were resuspended in fresh growth media and cell concentration was determined using a hemocytometer. Next, 0.5 μg/ml of Doxycycline was added to the cell suspension to induce hROMK channel expression and 50 μl (10,000 cells/well) of cell suspension was added to each well of a poly-D lysine coated 384 well black, optically clear bottom plate (6007718, Perkin Elmer). The assay plate was kept at 37° C. in a 5% CO2 incubator.
Assay protocol: On the day of experiment, media was removed and loading buffer was added (30 μl/well) to the assay plate. The cells were incubated in the loading buffer for 30 minutes at 37° C. The loading buffer was then replaced by assay buffer (30 μl/well) followed by addition of test compounds or controls. The cells were incubated with compounds for 30 minutes and the plate was then mounted on FlexStation (Molecular Devices) for fluorescence read out with excitation and emission wavelengths at 488 and 525 nm, respectively. Each well was read for 90 sec at 2 sec interval and the stimulus buffer was added after 20 seconds of baseline recording. The final DMSO concentration was either 0.5 or 1% in the assay plate. […] controls were defined by addition of DMSO or 3 μM of a standard ROMK inhibitor, respectively, to the wells instead of a test compound.
A 10-point concentration response curve was used to estimate the IC50 value of test compounds.
The data in Table 3 is reported with two significant figures.
In the case of `Cc1c(CN2Cc3cnc(Nc4ccc(C#N)c(F)c4)nc3CC2CO)ccc2c1COC2=O` (single isomer, unassigned) [Example 57-I, 2-fluoro-4-((7-(hydroxymethyl)-6-((4-methyl-1-oxo-1,3-dihydroisobenzo-furan-5-yl)methyl)-5,6,7,8-tetrahydro-pyrido[4,3-d]pyrimidin-2-yl)amino) benzonitrile], the IC50 was 830 nM.
For the compound `Cc1c(C(CO)N2CCc3cc(Nc4ccc(C#N)c(F)c4)ccc3C2)ccc2c1COC2=O` (single isomer, unassigned) [Example 33-I, 2-fluoro-4-((2-(2-hydroxy-1-(4-methyl-1-oxo-1,3-dihydroisobenzofuran-5-yl)ethyl)-1,2,3,4-tetrahydroisoquinolin-6-yl)amino) benzonitrile], the IC50 turned out to be 490 nM.
For `Cc1c(CN2CCc3cc(-n4ccc5c(C#N)cccc54)ccc3C2)ccc2c1COC2=O` [Example 24, 1-(2-((4-methyl-1-oxo-1,3-dihydro-isobenzofuran-5-yl)methyl)-1,2,3,4-tetrahydroisoquinolin-6-yl)-1H-indole-4-carbonitrile] the value was 820 nM; for `Cc1cc(Nc2ccc3c(c2)CCN(Cc2ccc4c(c2)COC4=O)C3)ncc1C#N` [Example 34, 4-methyl-6-((2-((1-oxo-1,3-dihydro-isobenzofuran-5-yl)methyl)-1,2,3,4-tetrahydroisoquinolin-6-yl)amino) nicotinonitrile], 300 nM.
Then `Cc1c(C(O)CN2CCc3nc(-n4ccc5c(C#N)ccnc54)ncc3C2)ccc2c1COC2=O` (single isomer, unassigned) [Example 19-II, 1-(6-(2-hydroxy-2-(4-methyl-1-oxo-1,3-dihydroisobenzofuran-5-yl)ethyl)-5,6,7,8-tetrahydropyrido[4,3-d]pyrimidin-2-yl)-1H-pyrrolo[2,3-b]pyridine-4-carbonitrile], with 1900 nM; and `Cn1c(=O)oc2ccc(C(O)CN3CCc4nc(-n5ccc6c(C#N)cccc65)ncc4C3)cc21` (single isomer, unassigned) [Example 22-II, 1-(6-(2-hydroxy-2-(3-methyl-2-oxo-2,3-dihydrobenzo[d]oxazol-5-yl)ethyl)-5,6,7,8-tetrahydropyrido[4,3-d]pyrimidin-2-yl)-1H-indole-4-carbonitrile], with 700 nM.
For `Cc1c(CN2CCc3nc(-n4cc(C#N)c5ccccc54)ncc3C2)ccc2c1COC2=O` [Example 23, 1-(6-((4-methyl-1-oxo-1,3-dihydro-isobenzofuran-5-yl)methyl)-5,6,7,8-tetrahydropyrido[4,3-d]pyrimidin-2-yl)-1H-indole-3-carbonitrile] the value was 1100 nM; for `N#Cc1cccc2c1ccn2-c1ncc2c(n1)CCN(CC(O)c1ccc3c(c1)COC3=O)C2` (single isomer, unassigned) [Example 18-II, 1-(6-(2-hydroxy-2-(1-oxo-1,3-dihydro-isobenzofuran-5-yl)ethyl)-5,6,7,8-tetrahydropyrido[4,3-d]pyrimidin-2-yl)-1H-indole-4-carbonitrile], 580 nM; for `Cc1c(CN2CCc3nc(-n4cnc5c(C#N)cccc54)ncc3C2)ccc2c1COC2=O` [Example 40, 1-(6-((4-methyl-1-oxo-1,3-dihydro-isobenzofuran-5-yl)methyl)-5,6,7,8-tetrahydropyrido[4,3-d]pyrimidin-2-yl)-1H-benzo[d]imidazole-4-carbonitrile], 3400 nM.
`N#Cc1ccc2c(ccn2-c2ncc3c(n2)CCN(CC(O)c2ccc4c(c2)COC4=O)C3)c1` (single isomer, unassigned) [Example 17-II, 1-(6-(2-hydroxy-2-(1-oxo-1,3-dihydro-isobenzofuran-5-yl)ethyl)-5,6,7,8-tetrahydropyrido[4,3-d]pyrimidin-2-yl)-1H-indole-5-carbonitrile]: the IC50 is 850 nM.
For `Cc1c(C(O)CN2CCc3nc(-n4cnc5ccccc54)ncc3C2)ccc2c1COC2=O` (single isomer, unassigned) [Example 67-I, 5-(2-(2-(1H-benzo[d]imidazol-1-yl)-7,8-dihydropyrido[4,3-d]pyrimidin-6(5H)-yl)-1-hydroxyethyl)-4-methyliso-benzofuran-1(3H)-one] the value was 157 nM; for `Cc1c(CN2CCc3nc(Nc4ccc5c(c4C)COC5=O)ncc3C2)ccc2c1COC2=O` [Example 5, 4-methyl-5-((2-((4-methyl-1-oxo-1,3-dihydroisobenzofuran-5-yl)amino)-7,8-dihydropyrido[4,3-d]pyrimidin-6(5H)-yl)methyl)isobenzofuran-1(3H)-one], 790 nM; for `Cc1c(C(O)CN2CCc3nc(-n4ccc5cc(C#N)ccc54)ncc3C2)ccc2c1COC2=O` (single isomer, unassigned) [Example 16-II, 1-(6-(2-hydroxy-2-(4-methyl-1-oxo-1,3-dihydroisobenzofuran-5-yl)ethyl)-5,6,7,8-tetrahydropyrido[4,3-d]pyrimidin-2-yl)-1H-indole-5-carbonitrile], 380 nM.
For `COc1cc(Nc2ncc3c(n2)CCN(CC(O)c2ccc4c(c2C)COC4=O)C3)ncc1C#N` (single isomer, unassigned) [Example 64-I, 6-((6-(2-hydroxy-2-(4-methyl-1-oxo-1,3-dihydroisobenzofuran-5-yl)ethyl)-5,6,7,8-tetrahydropyrido[4,3-d]pyrimidin-2-yl)amino)-4-methoxynicotinonitrile] the value was 381 nM.
Then `Cc1c(C(O)CN2CCc3nc(Nc4ccc5oc(=O)n(C)c5c4)ncc3C2)ccc2c1COC2=O` (single isomer, unassigned) [Example 62-I, 5-((6-(2-hydroxy-2-(4-methyl-1-oxo-1,3-dihydroisobenzofuran-5-yl)ethyl)-5,6,7,8-tetrahydropyrido[4,3-d]pyrimidin-2-yl)amino)-3-methylbenzo[d] oxazol-2(3H)-one], with 1030 nM.
In the case of `Cc1c(C(O)CN2CCc3nc(N4CCc5c(C#N)cccc54)ncc3C2)ccc2c1COC2=O` (single isomer, unassigned) [Example 65-II, 1-(6-(2-hydroxy-2-(4-methyl-1-oxo-1,3-dihydroisobenzofuran-5-yl)ethyl)-5,6,7,8-tetrahydropyrido[4,3-d]pyrimidin-2-yl)indoline-4-carbonitrile], the IC50 came out at 376 nM.
With `Cc1c(C(O)CN2CCc3nc(-n4ncc5c(C#N)cncc54)ncc3C2)ccc2c1COC2=O` (single isomer, unassigned) [Example 43-II, 1-(6-(2-hydroxy-2-(4-methyl-1-oxo-1,3-dihydroisobenzofuran-5-yl)ethyl)-5,6,7,8-tetrahydropyrido[4,3-d]pyrimidin-2-yl)-1H-pyrazolo[3,4-c]pyridine-4-carbonitrile], the IC50 turned out to be 640 nM.
For `Cc1c(C(O)CN2CCc3nc(-n4ncc5c(C#N)ccnc54)ncc3C2)ccc2c1COC2=O` (single isomer, unassigned) [Example 35-I, 1-(6-(2-hydroxy-2-(4-methyl-1-oxo-1,3-dihydroisobenzofuran-5-yl)ethyl)-5,6,7,8-tetrahydropyrido[4,3-d]pyrimidin-2-yl)-1H-pyrazolo[3,4-b]pyridine-4-carbonitrile], the IC50 was determined as 800 nM.
On to `O=C1OCc2cc(CN3CCc4cc(Nc5ccc6c(c5)COC6=O)ccc4C3)ccc21` [Example 15, 5-((6-((1-oxo-1,3-dihydroisobenzofuran-5-yl)amino)-3,4-dihydroisoquinolin-2(1H)-yl)methyl)isobenzofuran-1(3H)-one], for which the IC50 is 21 nM.
For `Cc1c(C(CO)N2CCc3cc(Nc4ccc(C#N)c(F)c4)ccc3C2)ccc2c1COC2=O` (single isomer, unassigned) [Example 33-II, 2-fluoro-4-((2-(2-hydroxy-1-(4-methyl-1-oxo-1,3-dihydroisobenzofuran-5-yl)ethyl)-1,2,3,4-tetrahydroisoquinolin-6-yl)amino) benzonitrile] the value was 1800 nM; for `Cc1c(C(O)CN2CCc3nc(-n4ncc5ncccc54)ncc3C2)ccc2c1COC2=O` (single isomer, unassigned) [Example 41-II, 5-(2-(2-(1H-pyrazolo[4,3-b]pyridin-1-yl)-7,8-dihydropyrido[4,3-d]pyrimidin-6(5H)-yl)-1-hydroxyethyl)-4-methylisobenzofuran-1(3H)-one], 1200 nM.

As a reminder, the IC50 is the concentration at which inhibition is half-maximal.
